Activity calls are given as the source filed them.
What was measured:
[1] = molecular target: T1, Cysteine--tRNA ligase, cytoplasmic (Homo sapiens, UniProt P49589)
T1 sequence (P49589 whole entry): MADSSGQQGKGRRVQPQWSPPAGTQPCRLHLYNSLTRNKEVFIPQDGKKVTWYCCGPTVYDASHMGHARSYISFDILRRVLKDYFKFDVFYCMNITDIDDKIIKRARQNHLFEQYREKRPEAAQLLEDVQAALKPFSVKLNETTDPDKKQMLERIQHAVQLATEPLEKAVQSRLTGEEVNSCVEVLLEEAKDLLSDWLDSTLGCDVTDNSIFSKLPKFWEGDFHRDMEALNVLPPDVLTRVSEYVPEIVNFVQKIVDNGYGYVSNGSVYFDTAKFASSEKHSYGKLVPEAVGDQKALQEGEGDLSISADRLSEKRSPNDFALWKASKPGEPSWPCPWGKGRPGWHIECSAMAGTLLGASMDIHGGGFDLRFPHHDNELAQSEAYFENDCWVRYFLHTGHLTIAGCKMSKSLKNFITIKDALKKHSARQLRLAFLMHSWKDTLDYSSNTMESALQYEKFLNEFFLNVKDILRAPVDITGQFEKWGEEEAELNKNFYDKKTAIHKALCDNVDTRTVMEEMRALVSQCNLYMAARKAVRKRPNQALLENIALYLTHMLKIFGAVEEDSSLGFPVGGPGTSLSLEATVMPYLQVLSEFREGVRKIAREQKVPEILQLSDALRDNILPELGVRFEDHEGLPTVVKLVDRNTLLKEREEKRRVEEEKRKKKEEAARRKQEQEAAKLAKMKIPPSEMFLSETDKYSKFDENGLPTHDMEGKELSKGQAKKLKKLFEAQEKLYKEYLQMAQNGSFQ

[2] = molecular target: Dual specificity protein kinase CLK1 (Homo sapiens, UniProt P49759)
Dual specificity protein kinase CLK1, sequence (P49759 whole entry): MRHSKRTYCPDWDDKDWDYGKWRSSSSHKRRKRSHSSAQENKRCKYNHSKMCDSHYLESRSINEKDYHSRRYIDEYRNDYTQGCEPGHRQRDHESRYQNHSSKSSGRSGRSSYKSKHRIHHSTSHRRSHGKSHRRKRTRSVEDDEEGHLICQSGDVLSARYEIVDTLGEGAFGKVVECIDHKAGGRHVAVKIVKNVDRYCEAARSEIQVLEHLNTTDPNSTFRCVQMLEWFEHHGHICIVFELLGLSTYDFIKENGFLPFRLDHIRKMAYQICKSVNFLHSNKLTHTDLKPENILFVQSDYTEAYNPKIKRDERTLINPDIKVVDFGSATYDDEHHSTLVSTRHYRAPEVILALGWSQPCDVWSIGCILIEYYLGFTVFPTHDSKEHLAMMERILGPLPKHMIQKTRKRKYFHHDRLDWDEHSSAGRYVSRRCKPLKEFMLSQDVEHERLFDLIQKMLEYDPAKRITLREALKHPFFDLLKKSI

[3] = molecular target: T2, MAP kinase-activated protein kinase 5 (Homo sapiens, UniProt Q8IW41)
T2 sequence (Q8IW41 whole entry): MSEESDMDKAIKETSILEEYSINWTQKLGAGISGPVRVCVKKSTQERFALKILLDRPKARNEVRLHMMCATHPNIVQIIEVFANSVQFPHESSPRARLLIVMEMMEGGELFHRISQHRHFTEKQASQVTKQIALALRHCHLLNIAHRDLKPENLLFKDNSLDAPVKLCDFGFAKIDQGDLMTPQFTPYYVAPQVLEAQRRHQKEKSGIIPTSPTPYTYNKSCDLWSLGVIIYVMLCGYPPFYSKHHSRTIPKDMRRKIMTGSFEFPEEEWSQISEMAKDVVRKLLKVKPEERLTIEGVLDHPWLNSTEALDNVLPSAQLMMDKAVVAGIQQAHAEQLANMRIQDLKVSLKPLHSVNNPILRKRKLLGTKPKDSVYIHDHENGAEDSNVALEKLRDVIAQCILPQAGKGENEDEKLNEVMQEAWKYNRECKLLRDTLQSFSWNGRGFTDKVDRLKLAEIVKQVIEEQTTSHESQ

[4] = molecular target: cAMP-dependent protein kinase catalytic subunit gamma (Homo sapiens, UniProt P22612)
cAMP-dependent protein kinase catalytic subunit gamma, sequence (P22612 whole entry): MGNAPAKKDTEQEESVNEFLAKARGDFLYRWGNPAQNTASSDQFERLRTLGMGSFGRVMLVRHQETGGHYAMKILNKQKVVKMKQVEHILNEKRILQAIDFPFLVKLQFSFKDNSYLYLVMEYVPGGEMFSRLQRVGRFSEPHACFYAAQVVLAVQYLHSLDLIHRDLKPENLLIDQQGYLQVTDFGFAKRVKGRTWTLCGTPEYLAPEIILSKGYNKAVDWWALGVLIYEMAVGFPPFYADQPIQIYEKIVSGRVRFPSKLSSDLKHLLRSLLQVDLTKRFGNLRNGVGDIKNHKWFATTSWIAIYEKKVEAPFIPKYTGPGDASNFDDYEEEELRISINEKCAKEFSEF

[5] = molecular target: T3, Ras-related protein Rab-27A (Homo sapiens, UniProt P51159)
T3 sequence (P51159 whole entry): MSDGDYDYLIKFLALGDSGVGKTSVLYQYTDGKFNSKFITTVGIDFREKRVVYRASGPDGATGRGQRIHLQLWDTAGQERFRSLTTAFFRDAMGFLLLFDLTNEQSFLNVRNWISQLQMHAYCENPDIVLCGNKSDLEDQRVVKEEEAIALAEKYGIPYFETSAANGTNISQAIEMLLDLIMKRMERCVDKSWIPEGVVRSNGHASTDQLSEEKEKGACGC

[6] = molecular target: Structural maintenance of chromosomes protein 2 (Homo sapiens, UniProt O95347)
Structural maintenance of chromosomes protein 2, sequence (O95347 whole entry): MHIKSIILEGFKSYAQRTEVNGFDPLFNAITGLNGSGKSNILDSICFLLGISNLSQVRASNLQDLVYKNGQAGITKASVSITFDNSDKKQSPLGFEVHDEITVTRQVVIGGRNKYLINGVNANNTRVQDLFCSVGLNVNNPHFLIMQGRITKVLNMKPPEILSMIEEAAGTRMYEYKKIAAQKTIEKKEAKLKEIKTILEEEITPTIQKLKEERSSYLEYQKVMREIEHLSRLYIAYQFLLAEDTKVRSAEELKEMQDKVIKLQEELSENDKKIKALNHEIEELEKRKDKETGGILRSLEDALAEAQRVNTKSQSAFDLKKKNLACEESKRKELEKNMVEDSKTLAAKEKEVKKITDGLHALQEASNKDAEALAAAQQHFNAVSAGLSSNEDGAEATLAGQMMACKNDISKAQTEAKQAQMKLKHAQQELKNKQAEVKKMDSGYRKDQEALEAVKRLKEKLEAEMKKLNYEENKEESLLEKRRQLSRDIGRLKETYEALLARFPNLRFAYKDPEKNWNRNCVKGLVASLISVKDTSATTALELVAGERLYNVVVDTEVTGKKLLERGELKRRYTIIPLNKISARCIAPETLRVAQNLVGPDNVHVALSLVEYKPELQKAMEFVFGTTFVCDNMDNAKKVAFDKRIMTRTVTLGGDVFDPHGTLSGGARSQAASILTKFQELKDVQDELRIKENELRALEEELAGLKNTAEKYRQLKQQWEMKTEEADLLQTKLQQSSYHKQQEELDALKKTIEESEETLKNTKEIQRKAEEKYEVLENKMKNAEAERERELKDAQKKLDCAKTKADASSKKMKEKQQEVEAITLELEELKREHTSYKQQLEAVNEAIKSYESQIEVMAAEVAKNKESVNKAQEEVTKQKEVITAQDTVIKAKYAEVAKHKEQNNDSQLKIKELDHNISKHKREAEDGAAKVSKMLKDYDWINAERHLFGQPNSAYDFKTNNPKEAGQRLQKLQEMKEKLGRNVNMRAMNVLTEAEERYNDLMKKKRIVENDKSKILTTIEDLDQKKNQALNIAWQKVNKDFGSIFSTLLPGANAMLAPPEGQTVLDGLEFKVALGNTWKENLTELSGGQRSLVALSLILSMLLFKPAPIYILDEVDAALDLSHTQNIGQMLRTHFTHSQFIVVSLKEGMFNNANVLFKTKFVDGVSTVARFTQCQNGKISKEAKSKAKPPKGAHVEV

[7] = molecular target: T4, Tyrosine-protein kinase Tec (Homo sapiens, UniProt P42680)
T4 sequence (P42680 whole entry): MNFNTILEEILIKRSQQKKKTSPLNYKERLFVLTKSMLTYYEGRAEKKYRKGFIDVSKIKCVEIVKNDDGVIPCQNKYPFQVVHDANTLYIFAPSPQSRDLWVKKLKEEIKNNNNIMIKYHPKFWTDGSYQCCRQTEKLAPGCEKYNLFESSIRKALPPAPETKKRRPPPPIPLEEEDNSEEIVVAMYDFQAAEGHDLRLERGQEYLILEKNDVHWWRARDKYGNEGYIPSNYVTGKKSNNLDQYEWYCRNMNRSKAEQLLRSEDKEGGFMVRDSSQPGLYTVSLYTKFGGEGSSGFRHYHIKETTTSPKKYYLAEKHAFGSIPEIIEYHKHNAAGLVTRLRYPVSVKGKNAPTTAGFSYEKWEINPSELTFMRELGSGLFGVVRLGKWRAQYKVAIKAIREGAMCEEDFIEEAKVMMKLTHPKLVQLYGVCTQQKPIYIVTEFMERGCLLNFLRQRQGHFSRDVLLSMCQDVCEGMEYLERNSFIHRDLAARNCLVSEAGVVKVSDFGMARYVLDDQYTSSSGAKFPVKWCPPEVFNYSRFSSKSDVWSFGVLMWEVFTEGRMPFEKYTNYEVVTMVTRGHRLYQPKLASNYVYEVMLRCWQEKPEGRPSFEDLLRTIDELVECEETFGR
Note: in the data inactive means no Kd found up to 30 µM.

Compound | Kd [1] | Kd [2] | Kd [3] | Kd [4] | Kd [5] | Kd [6] | Kd [7]
CC(=O)c1cnc2ccc(-c3cc(Cl)c(O)c(Cl)c3)nc2c1N[C@H]1CC[C@H](CN(C)C)CC1 | > 30 µM (inactive) | 0.011 µM (active) | 0.272 µM (active) | > 30 µM (inactive) | > 30 µM (inactive) | > 30 µM (inactive) | > 30 µM (inactive)
CCNC(=O)C#Cc1ccc2c(c1)NC(=O)/C2=C(\Nc1ccc(CN(C)C)cc1)c1ccccc1 | > 30 µM (inactive) | > 30 µM (inactive) | – | > 30 µM (inactive) | > 30 µM (inactive) | > 30 µM (inactive) | 0.885 µM (active)
C=CC(=O)N1CCC[C@H](n2c(=O)n(-c3ccc(Oc4ccccc4)cc3)c3c(N)ncnc32)C1 | > 30 µM (inactive) | > 30 µM (inactive) | > 30 µM (inactive) | > 30 µM (inactive) | > 30 µM (inactive) | > 30 µM (inactive) | 0.006 µM
Cc1nc2cc(-c3nn(C(C)C)c4ncnc(N)c34)ccc2o1 | > 30 µM (inactive) | > 30 µM (inactive) | > 30 µM (inactive) | – | > 30 µM (inactive) | > 30 µM (inactive) | > 30 µM (inactive)
COCc1c(-c2ccc(NC(=O)Nc3cc(C(F)(F)F)ccc3F)c(F)c2)c2c(N)ncnn2c1CN1CCOCC1 | > 30 µM (inactive) | > 30 µM (inactive) | > 30 µM (inactive) | > 30 µM (inactive) | > 30 µM (inactive) | > 30 µM (inactive) | > 30 µM (inactive)
COc1cc(Nc2ncc3c(n2)-c2ccc(Cl)cc2C(c2c(F)cccc2OC)=NC3)ccc1C(=O)O [ALISERTIB] | > 30 µM (inactive) | > 30 µM (inactive) | – | > 30 µM (inactive) | > 30 µM (inactive) | > 30 µM (inactive) | > 30 µM (inactive)
Cc1nc(NC(=O)N2CCC[C@H]2C(N)=O)sc1-c1ccnc(C(C)(C)C(F)(F)F)c1 [ALPELISIB] | > 30 µM (inactive) | > 30 µM (inactive) | > 30 µM (inactive) | 1.99 µM (active) | – | > 30 µM (inactive) | > 30 µM (inactive)
COc1cc([C@@H]2c3cc4c(cc3[C@H](O)[C@H]3COC(=O)[C@@H]23)OCO4)cc(OC)c1OC [AXL-1717] | > 30 µM (inactive) | – | > 30 µM (inactive) | > 30 µM (inactive) | > 30 µM (inactive) | > 30 µM (inactive) | > 30 µM (inactive)
CC(C)(C)c1nc(-c2cccc(NS(=O)(=O)c3c(F)cccc3F)c2F)c(-c2ccnc(N)n2)s1 [DABRAFENIB] | > 30 µM (inactive) | > 30 µM (inactive) | – | > 30 µM (inactive) | > 30 µM (inactive) | > 30 µM (inactive) | > 30 µM (inactive)
Cc1[nH]c(/C=C2\C(=O)Nc3ccccc32)c(C)c1CCC(=O)O [ORANTINIB] | > 30 µM (inactive) | > 30 µM (inactive) | – | – | > 30 µM (inactive) | > 30 µM (inactive) | > 30 µM (inactive)
CCOc1cc2ncc(C#N)c(Nc3ccc(F)c(Cl)c3)c2cc1NC(=O)/C=C/CN(C)C [PELITINIB] | > 30 µM (inactive) | > 30 µM (inactive) | > 30 µM (inactive) | – | > 30 µM (inactive) | > 30 µM (inactive) | > 30 µM (inactive)
CO[C@H]1C[C@@H]2CC[C@@H](C)[C@@](O)(O2)C(=O)C(=O)N2CCCC[C@H]2C(=O)O[C@H]([C@H](C)C[C@@H]2CC[C@@H](O)[C@H](OC)C2)CC(=O)[C@H](C)/C=C(\C)[C@@H](O)[C@@H](OC)C(=O)[C@H](C)C[C@H](C)/C=C/C=C/C=C/1C [SIROLIMUS] | > 30 µM (inactive) | > 30 µM (inactive) | > 30 µM (inactive) | – | > 30 µM (inactive) | > 30 µM (inactive) | > 30 µM (inactive)
O=C(Cc1ccc(-c2ccc(OCCN3CCOCC3)cc2)cn1)NCc1ccccc1 [TIRBANIBULIN] | > 30 µM (inactive) | > 30 µM (inactive) | > 30 µM (inactive) | – | > 30 µM (inactive) | > 30 µM (inactive) | > 30 µM (inactive)
O=C1NC(=O)[C@@H](c2cn3c4c(cccc24)CCC3)[C@@H]1c1c[nH]c2ccccc12 [TIVANTINIB] | > 30 µM (inactive) | > 30 µM (inactive) | > 30 µM (inactive) | – | > 30 µM (inactive) | > 30 µM (inactive) | > 30 µM (inactive)
Cc1cc(Nc2ncnc3ccc(NC4=NC(C)(C)CO4)cc23)ccc1Oc1ccn2ncnc2c1 [TUCATINIB] | > 30 µM (inactive) | – | > 30 µM (inactive) | > 30 µM (inactive) | > 30 µM (inactive) | > 30 µM (inactive) | > 30 µM (inactive)

Results, then the compound that gave them:

Kd [1] | Kd [2] | Kd [3] | Kd [4] | Kd [5] | Kd [6] | Kd [7] | Compound
> 30 µM (inactive) | 2.04 µM (active) | 0.589 µM (active) | 0.003 µM (active) | > 30 µM (inactive) | > 30 µM (inactive) | – | O=C(Nc1c[nH]nc1-c1nc2cc(CN3CCOCC3)ccc2[nH]1)NC1CC1 [AT-9283]
> 30 µM (inactive) | > 30 µM (inactive) | > 30 µM (inactive) | > 30 µM (inactive) | > 30 µM (inactive) | > 30 µM (inactive) | > 30 µM (inactive) | Cc1cc(C(=O)NOCCO)c(Nc2ccc(I)cc2F)n(C)c1=O [AZD-8330]
> 30 µM (inactive) | > 30 µM (inactive) | – | > 30 µM (inactive) | > 30 µM (inactive) | > 30 µM (inactive) | > 30 µM (inactive) | CCn1c(C(=O)N(C2CC2)C2CC2)cc2c3c(ncn3C)c(Nc3cc(C)n(C)n3)nc21 [BMS-911543]
> 30 µM (inactive) | > 30 µM (inactive) | > 30 µM (inactive) | – | > 30 µM (inactive) | > 30 µM (inactive) | > 30 µM (inactive) | COc1cc2ncnc(Oc3cccc(NC(=O)Nc4cc(C(C)(C)C(F)(F)F)on4)c3)c2cc1OC [CEP-32496]
> 30 µM (inactive) | > 30 µM (inactive) | > 30 µM (inactive) | – | > 30 µM (inactive) | > 30 µM (inactive) | > 30 µM (inactive) | CCn1cc(-c2ccnc3[nH]c(-c4cccc(CN(C)C)c4)cc23)c(-c2ccc(NC(=O)N(C)C)cc2)n1 [GSK-1070916]
> 30 µM (inactive) | – | > 30 µM (inactive) | > 30 µM (inactive) | > 30 µM (inactive) | > 30 µM (inactive) | > 30 µM (inactive) | CN(C[C@@H]1COCCO1)S(=O)(=O)Nc1ccc2ccc3ncc(-c4cnn(C)c4)cc3c(=O)c2c1 [MK-2461]
> 30 µM (inactive) | > 30 µM (inactive) | – | > 30 µM (inactive) | > 30 µM (inactive) | > 30 µM (inactive) | 2.32 µM (active) | CC(=O)NCC(=O)N1[C@@H]2CC[C@H]1c1ccc(Nc3ncc(C(F)(F)F)c(NC4CCC4)n3)cc12 [PF-03814735]

— ChEMBL document CHEMBL3991601, “The target landscape of clinical kinase drugs” (Science, 2017)
